Patent US12522855B2, “Methods and kits for identifying thrombus origin and optimizing post-ischemic event treatment” (TEL HASHOMER MEDICAL RESEARCH INFRASTRUCTURE AND SERVICES …, priority 2019, dated 2026)

Target: thrombin (Homo sapiens, UniProt P00734)
Conditions: 1 μM final concentration, added to selected reaction wells; 15 clots from randomized sources
Procedure: Thrombin activity was measured as previously described by Beilin et al., (2001, Neuroreport: doi:10.1097/00001756-200108080-00013) in 10 L triplicates of clot-free buffer in a black Nunc 96 wells microplate by a fluorometric assay quantifying the cleavage of the synthetic peptide thrombin substrate Boc-Asp(OBzl)-Pro-Arg-AMC (I-1560, Bachem, Switzerland, 13 μM final concentration). Measurements were performed by the Infinite 2000 microplate reader (Tecan, infinite 200, Switzerland) with excitation and emission filters of 360±35 and 460±35 nm, respectively. For calibration, known concentrations of bovine thrombin (Sigma-Aldrich, Israel) were used in the same assay.

NAPAP
effect on thrombin activity profile (specificity check of the fluorescent signal): high and consistent abolition of thrombin activity profile
